Measurements taken from patent publication USRE47475E1, “Selective agents for pain suppression” (WiSys Technology Foundation, Inc., priority 2002, dated 2019).

Legend:
[1] = tested on: neuropathic pain after CCI of the sciatic nerve; experiment: chronic constriction injury (CCI) model, mechanical sensitization (von Frey filaments); type: in vivo, mice
[2] = tested on: motor coordination of mice; experiment: rotarod test (motor impairment); type: in vivo; details: HZ166 16 and 48 mg/kg, gabapentin 10 and 30 mg/kg, i.p., 60 min after treatment
Procedure: Motor impairment: A possible impairment of motor function was analyzed in the rotarod test. Mice were trained on the rotarod (diameter 3 cm, 2 rpm) for 2 days. Animals capable of remaining on the rotarod in the absence of treatment for at least 2 min were selected for drug testing. On the test day, the latency to fall off the rod was recorded before and 60 minutes after treatment with vehicle, HZ166 or gabapentin.

[3] = tested on: neuropathic pain after CCI of the sciatic nerve; experiment: tolerance development in the CCI model (chronic treatment); type: in vivo, mice; details: for tolerance development / loss of antihyperalgesic activity: 9-day treatment period in neuropathic mice
Procedure: Tolerance development: Possible development of tolerance against the antihyperalgesic effect of HZ166 was investigated in the CCI model. Starting from day 7 after CCI surgery, HZ166 at the dose of 16 mg/kg or vehicle were administered intraperitoneally once daily for 9 consecutive days. On day 10, each group (vehicle and HZ166) was subdivided in 2 subgroups: one received vehicle and the other HZ166 at the dose of 16 mg/kg. After the last injection, mechanical sensitivity was assessed for 3 hours.

[4] = tested on: Formalin Pain (mouse, i.p.); experiment: T22 formalin test (chemically induced pain); type: in vivo
Procedure: This elicits a distinct bi-phasic behavioral profile in response to the formalin injection characterized by licking of the affected paw, and the number of licks is measured as a proxy for perceived pain. The first (acute) phase is thought to correspond to the direct stimulation of peripheral fibers while the second (inflammatory) phase is caused by the release of inflammatory mediators from the damaged tissue and nerve endings. Thus, this model is ideally suited for efficacy of an investigational AED against the acute and chronic hyper-responsive neuronal discharges following activation of peripheral nerve fibers.
The results of the formalin test are given both as raw data (“Response”) and in an aggregate, analyzed form (“Analysis”). In the Response section, each Trial involves sixteen animals, eight controls given an i.p. injection of vehicle and eight given the compound at a specified dose. Thus, for multiple doses of the compound, there will also be multiple control groups. The data recorded for each animal is the amount of time(s) spent licking the affected hind paw in a two minute period. These two minute periods occur at five minute intervals and continue for 45 minutes. […] From this plot, we can then determine the area under the curve (AUC) for each animal during both the acute and inflammatory stages. The AUC for each phase is shown in the analysis section of the data sheet for both control and drug-treated animals The AUC for each drug-treated animal is compared to the average result from the control group, yielding an average percent of control (reported with the SEM and p value).

[5] = tested on: seizures; details: Rivas et al., 2009, cited from earlier work
[6] = tested on: inflammatory hyperalgesia induced by zymosan A; experiment: zymosan A model of inflammatory pain, mechanical sensitization; type: in vivo, mice; details: 16 mg/kg i.p., 48 hours after zymosan A; n=6
Procedure: Inflammatory pain is assessed in the zymosan A model. See Hargreaves, K., Dubner, R., Brown, F., Flores, C. & Joris, J. A new and sensitive method for measuring thermal nociception in cutaneous hyperalgesia. Pain 32, 77-88 (1988). Inflammatory pain is induced by subcutaneous injection of zymosan A (0.06 mg in mice; 1 mg in rats) into one hindpaw. In mice, 0.06 mg of zymosan A suspended in […] of 0.9% NaCl is injected subcutaneously into the plantar side of the left hindpaw. The model is also used in rats, but 1 mg of zymosan A is used. Heat hyperalgesia is assessed 24 h and 6 h after induction of inflammation in mice and rats, respectively.
Pain Studies—Inflammatory pain: Inflammatory pain was studied in the zymosan A model (Meller and Gebhart, 1997). 0.06 mg zymosan A (Sigma Chemicals) suspended in 20 μl 0.9% NaCl was injected subcutaneously into the plantar side of the left hindpaw. Mechanical sensitization was assessed 48 hours after induction of inflammation.
Pain Studies—Mechanical sensitization: Mechanical sensitivity was assessed with dynamic von Frey filaments (IITC, Woodland Hills, Calif.). […]
Statistical Analysis: For all different doses and vehicle, baseline paw withdrawal thresholds/latencies on day 7 after nerve ligation or on day 2 after zymosan A injection were subtracted from all later withdrawal thresholds and the area under the curve (AUC) was calculated. […]

With `C#Cc1ccc2c(c1)C(c1ccccn1)=NCc1c(C(=O)OCC)ncn1-2` [HZ-166, 8-Acetylenyl-6-pyridin-2-yl-4H-benzo[f]imidazo[1,5-a][1,4]diazepine-3-carboxylic acid ethyl ester] the “analgesia, mechanical sensitivity (von Frey) in CCI model” value ([1]; 48 mg/kg, 160 mg/kg and 480 mg/kg i.p.) was “significant analgesia”, the “AUC of mechanical PWT, HZ166 followed by vehicle” value ([1]; HZ166 16 mg/kg i.p., vehicle 45 min later, n=6) was 1.90 ± 0.29 g·h and the ED50 ([1]; Mus musculus, ip, 168 h, i.p., day 7 after CCI surgery, Hill fit, read-out: ED50, increase of ipsilateral PWT) was 3.83 ± 0.94 mg/kg. The “reversal of mechanical hypersensitivity” value ([1]; i.p., CCI model) was “dose-dependent reversal”, the “PWTs of the contralateral paw” value ([1]; i.p., day 7 after CCI surgery) was “not affected” and the “time of maximum effect on ipsilateral PWT after injection” value ([1]; i.p., day 7 after CCI surgery) was “about 1 h”. For the same compound, the “doses at which saturation of the antihyperalgesic effect was reached” value ([1]; i.p., mechanical PWT) was ≥ 160 mg/kg, the “doses with statistically significant antihyperalgesic effects” value ([1]; i.p., mechanical PWT) was ≥ 16 mg/kg and the “analgesic effects in the chronic constriction injury model of neuropathic pain” value ([1]; mouse, in vivo) was “analgesic effects”. For the same compound, the “interfered with rotarod performance” value [2] was “Neither”, the “analgesic activity in mice chronically exposed to HZ166 versus drug-naïve mice” value ([3]; 16 mg/kg once daily for 9 days from day 7 after CCI, test on day 10) was “virtually the same” and the “tolerance development / loss of antihyperalgesic activity” value [3] was “did not develop tolerance”. For the same compound, the “tolerance development / loss of antihyperalgesic activity” value ([3]; listed as HZ166) was “no loss”, the “protection at the acute phase of chemically induced pain” value ([4]; formalin test, acute phase) was “significant protection” and the “Change (% of Control) ± SEM, T22 Formalin Pain, Acute” value ([4]; mouse, i.p., acute phase, dose 16 (HZ-166), 10 (JY-XHE-053), 1 (XLI-JY-DMH) mg/kg) was 66.8 % of Control. For the same compound, the “Change (% of Control) ± SEM, T22 Formalin Pain, inflammatory” value ([4]; mouse, i.p., inflammatory phase, dose 16 (HZ-166), 10 (JY-XHE-053), 1 (XLI-JY-DMH) mg/kg) was 63 % of Control, the toxicity [5] was “minimal” and the anticonvulsive activity ([5]; at non-sedative doses) was “good anticonvulsive activity”. For the same compound, the “AUC of mechanical PWT” value [6] was 1.55 ± 0.21 g·h.
